{
  "source": "patent US20220273643A1",
  "about": "“METHOD OF TREATING KRAS-ASSOCIATED CANCERS” (THE REGENTS OF THE UNIVERSITY OF MICHIGAN, priority 2019, published 2022)",
  "key": {"[1]": {"target": "T1, EGFR (Homo sapiens, UniProt P00533)", "T1 construct": "endogenous in cells; host or cells: HCT-116, Panc1 (inferred; the sentence holding the result names no cells)", "T1 sequence (P00533 25-1210)": "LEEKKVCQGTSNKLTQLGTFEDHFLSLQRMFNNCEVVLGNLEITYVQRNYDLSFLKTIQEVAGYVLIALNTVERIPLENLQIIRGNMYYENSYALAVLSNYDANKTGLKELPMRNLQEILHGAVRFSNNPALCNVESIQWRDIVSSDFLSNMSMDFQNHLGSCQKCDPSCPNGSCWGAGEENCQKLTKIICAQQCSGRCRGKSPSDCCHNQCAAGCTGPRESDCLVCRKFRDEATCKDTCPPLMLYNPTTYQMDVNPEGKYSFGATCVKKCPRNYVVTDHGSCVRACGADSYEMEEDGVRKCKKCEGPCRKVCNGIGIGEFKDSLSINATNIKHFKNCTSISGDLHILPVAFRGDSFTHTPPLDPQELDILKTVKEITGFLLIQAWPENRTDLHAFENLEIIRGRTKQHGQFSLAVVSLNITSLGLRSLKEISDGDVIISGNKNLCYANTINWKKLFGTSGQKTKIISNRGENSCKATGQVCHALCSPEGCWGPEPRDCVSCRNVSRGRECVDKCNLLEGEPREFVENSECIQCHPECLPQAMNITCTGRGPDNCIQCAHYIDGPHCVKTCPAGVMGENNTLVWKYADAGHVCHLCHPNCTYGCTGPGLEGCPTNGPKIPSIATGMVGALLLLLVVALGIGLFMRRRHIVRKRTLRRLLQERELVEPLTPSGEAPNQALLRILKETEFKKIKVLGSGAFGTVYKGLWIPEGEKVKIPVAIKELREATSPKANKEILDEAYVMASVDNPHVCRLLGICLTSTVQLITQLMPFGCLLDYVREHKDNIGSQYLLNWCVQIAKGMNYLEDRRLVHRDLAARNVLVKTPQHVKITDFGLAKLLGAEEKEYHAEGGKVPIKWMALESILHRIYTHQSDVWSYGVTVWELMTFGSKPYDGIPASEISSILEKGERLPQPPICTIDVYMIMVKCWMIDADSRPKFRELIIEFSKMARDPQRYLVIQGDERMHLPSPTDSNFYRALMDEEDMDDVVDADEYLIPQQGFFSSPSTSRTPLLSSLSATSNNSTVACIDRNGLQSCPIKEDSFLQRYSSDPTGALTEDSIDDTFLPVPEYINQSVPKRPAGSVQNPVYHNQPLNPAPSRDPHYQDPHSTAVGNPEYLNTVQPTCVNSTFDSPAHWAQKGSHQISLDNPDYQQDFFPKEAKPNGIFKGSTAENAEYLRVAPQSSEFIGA", "assay": "EGF-induced EGFR dimerization", "format": "cell-based"}, "[2]": {"system": "UMSCC74B", "format": "in vivo", "method": "FIG. 1 depicts the effect of DGD1202 in mutant KRAS (and EGFR co-driven) head and neck (UMSCC74B) tumor model.\nTumor-bearing mice were treated with DGD1202 via oral gavage in 30 mg/kg dose biweekly for one week. This dose was selected based on its single-dose PK profile."}, "[3]": {"assay": "bioavailability", "format": "in vivo", "details": "systemic injection and oral administration"}, "[4]": {"system": "PanIn (pancreatic intraepithelial neoplasia)", "assay": "KRAS G12D driven pancreatic tumor model (KC mice)", "format": "in vivo", "details": "30 mg/kg oral gavage daily for 5 weeks, scored at week 11", "method": "A study was conducted to evaluate the efficacy of DGD1202 in KRAS G12D driven pancreatic tumor model.\nMore specifically, 6-week old KC mice were treated with DGD1202 via oral gavage (30 mg/kg body weight, daily) for 5 weeks."}, "[5]": {"assay": "liver microsomal stability", "format": "in vitro ADME", "details": "compared to two other structurally close compounds"}, "[6]": {"system": "NCI-H1975-AZR", "assay": "NCI-H1975-AZR (osimertinib resistant) xenograft", "format": "in vivo", "details": "SCID mice, 75 mg/kg oral gavage daily for two weeks", "method": "FIG. 5 depicts the effect of DGD1202 on osimertinib resistant, NCI-H1975 lung cancer xenografts. (A). SCID mice bearing NCI-H1975 osimertinib resistant xenografts were treated with DGD1202 (75 mg/kg, daily, PO). The arrow marks the initiation of treatment with DGD1202. Change in tumor volume is plotted. (B). The effect of DGD1202 treatment on EGFR was assessed in tumors harvested 3 days post DGD1202 treatment.\nA study was conducted to evaluate the efficacy of DGD1202 in mutant EGFR driven lung cancer model (FIG. 5).\nBriefly, SCID mice bearing locally advanced NCI-H1975-AZR (osimertinib resistant) xenograft were treated daily with oral gavage of DGD1202 (75 mg/kg) for two weeks. Tumor volumes were measured using calipers at least three times a week. The effect of DGD1202 treatment on EGFR expression was determined by IHC staining 3-days after initiation of treatment."}, "[7]": {"system": "cetuximab-resistant cell-lines", "assay": "IC50 against cetuximab-resistant cell-lines", "format": "cell-based", "details": "cetuximab-resistant cell-lines expressing mutant KRAS"}, "[8]": {"system": "HCT-116", "assay": "immunoblotting HCT-116", "format": "cell-based", "details": "preliminary data", "method": "(§1) FIG. 3 depicts the effect of DGD1202 on EGFR, KRAS and downstream signaling. (A). HCT-116 (colorectal cancer) cells were treated with DGD1202 for 5 h or 15 h, and whole cell lysates were probed with listed antibodies. (B). Evaluation of DGD1202 effects against the KRAS G12D driven pancreatic cell line (Panc1) tumor model; effect of treatment on the steady-state level of EGFR and mtKRAS was determined by immunoblotting; and GAPDH expression was assessed as a loading control.\n(§2) The effect of DGD1202 on EGFR, ERK and AKT was also evaluated by immunoblotting. The preliminary data for DGD1202 in mutant KRAS driven HCT-116 (CRC) and Panc1 (Pancreas) cell lines are shown in FIG. 3A and FIG. 3B, respectively.\n(§3) Cells were plated in 60-mm dishes at a density of 3×10^5 cells per dishes and incubated overnight or to 70% confluence. The cells were treated with the vehicle (DMSO) or DGD1202 and then were harvested at various time points. The pellets were washed twice with ice-cold PBS and re-suspended in lysis buffer for 30 min. After sonication, particulate material was removed by centrifugation at 13,000 rpm for 10 min at 4° C. […] After three additional washes in Tris-buffered saline, bound antibody was detected by enhanced chemiluminescence plus reagent. For quantification of relative protein levels, immunoblot films were scanned and analyzed using Image J 1.32j software. […]"}, "[9]": {"system": "lung lesion", "assay": "genetically engineered KRAS-LSL-G12D mouse model of lung cancer", "format": "in vivo, mice", "details": "30 mg/kg oral gavage Monday-Friday for 4 weeks; paired t-test p=0.0577", "method": "The efficacy of DGD1202 treatment was assessed for KRAS-mutant lung tumor initiation and progression. A genetically engineered KRAS-LSL-G12D mouse model of lung cancer was used. This mouse carries a Lox-Stop-Lox (LSL) sequence followed by the KRAS G12D point mutation allele. Tumorigenesis was initiated by intra-nasal delivery of Adenovirus-Cre particles (1.5×10e^7 pfu) that transduced lung epithelial cells to express Cre recombinase that deletes the LSL cassette and allows the expression of the mutant KRAS oncogenic protein.\nEight weeks after viral delivery, the mice were treated either with vehicle or with DGD1202 on a Monday-Friday schedule for 4 weeks at a dose of 30 mg/kg oral gavage. When mice were 20-week old, the lungs were harvested and the H&E sections underwent morphological assessment. The histopathological spectrum of the lung lesions was noted and recorded in a double-blinded fashion for hyperplasia—alveolar or bronchial, the pattern of hyperplasia, adenoma, hyperplasia with focal atypia, bronchial dysplasia, adenomas, and atypical adenomatous hyperplasia. The percentage of lung lesion and total area of lung lesion from each lobe in every sample from both treatment group were scored and are shown in FIG. 6."}, "[10]": {"system": "HCT-116", "assay": "clonogenic survival assay HCT-116", "format": "cell-based", "details": "KRAS G13D driven cetuximab-resistant colorectal cell-line; FIG. 2", "method": "A study was conducted to evaluate the activity of DGD1202 in a KRAS G13D driven cetuximab-resistant colorectal cell-line (HCT-116) using clonogenic survival assays (FIG. 2) and in a pancreatic cancer cell line (Panc1) that contains KRAS G12D mutation (FIG. 3B).\nMore specifically, cells were plated at clonal density in 60 or 100 mm culture dishes in triplicate one day before treatment with a range of concentrations (e.g., 0-10 micro M). Eight to twelve days later, cells were fixed with acetic acid/methanol (1:7, v/v), stained with crystal violet (0.5%, w/v), and counted using a stereomicroscope. Drug cytotoxicity (surviving drug-treated cells) was measured and normalized to the survival of the untreated control cells."}, "[11]": {"target": "purified EGFR (Homo sapiens, UniProt P00533)", "sequence (P00533 25-1210)": "as above", "assay": "direct binding to purified EGFR"}, "[12]": {"system": "immortalized cells of non-cancer origin", "assay": "IC50 in immortalized cells of non-cancer origin", "format": "cell-based"}, "[13]": {"system": "Panc1", "assay": "immunoblotting Panc1", "format": "cell-based", "details": "Panc1, KRAS G12D specific antibody; preliminary data", "method": "as §1, §2, §3"}, "[14]": {"system": "EGFR-driven osimertinib resistant cell lines", "assay": "activity in osimertinib resistant cell lines", "format": "cell-based"}, "[15]": {"assay": "solubility in water", "format": "physicochemical", "details": "pH 3.5"}, "[16]": {"target": "T1, EGFR", "assay": "EGFR degradation", "format": "cell-based", "details": "instead of inhibiting the activity"}},
  "data": [
    {"smiles": "CN1CCC2(CC1)N=C(SCC(=O)Nc1cnc3ccccc3c1)C(c1ccc(Br)cc1)=N2", "note": "[DGD1202, 2-((3-(4-bromophenyl)-8-methyl-1,4,8-triazaspiro[4.5]deca-1,3-dien-2-yl)thio)-N-(quinolin-3-yl)acetamide]", "values": [
      {"measurement": "EGF-induced EGFR dimerization", "setting": "[1]", "result": "blocks EGF-induced EGFR dimerization"},
      {"measurement": "safety of dose and regimen", "setting": "[2]; 30 mg/kg oral gavage, tumor-bearing mice", "result": "safe"},
      {"measurement": "tumor growth", "setting": "[2]; UMSCC74B tumor-bearing mice, DGD1202 30 mg/kg oral gavage, cetuximab 100 mg/kg (FIG. 1), P<0.001 for DGD1202", "result": "significant tumor growth suppression"},
      {"measurement": "bioavailability", "setting": "[3]", "result": "bioavailable"},
      {"measurement": "effect on PanIn (pancreatic intraepithelial neoplasia)", "setting": "[4]", "result": "significantly reduced propensity for developing PanIn"},
      {"measurement": "liver microsomal stability", "setting": "[5]", "result": "much better liver microsomal stability"},
      {"measurement": "efficacy on tumor volume", "setting": "[6]", "result": "exhibited efficacy"},
      {"measurement": "IC50", "setting": "[7]", "result": "500 to 2200", "unit": "nM"},
      {"measurement": "EGFR and KRAS levels by immunoblotting", "setting": "[8]; HCT116, PAN-RAS antibody, 5 h or 15 h", "result": "affected both EGFR and mtKRAS"},
      {"measurement": "downstream signaling pAKT and pERK by immunoblotting", "setting": "[8]; HCT-116", "result": "affected downstream signaling in pAKT and pERK"},
      {"measurement": "percentage of lung lesion and total area of lung lesion vs vehicle", "setting": "[9]", "result": "tend towards significance"},
      {"measurement": "clonogenic survival", "setting": "[10]", "result": "effective"},
      {"measurement": "binding to purified EGFR", "setting": "[11]", "result": "directly binds to purified EGFR"},
      {"measurement": "IC50", "setting": "[12]", "result": "> 20000", "unit": "nM"},
      {"measurement": "EGFR and mtKRAS levels by immunoblotting", "setting": "[13]", "result": "affected both EGFR and mtKRAS (Panc1) levels"},
      {"measurement": "activity in EGFR-driven osimertinib resistant cell lines", "setting": "[14]", "result": "selectively active"},
      {"measurement": "solubility in water", "setting": "[15]", "result": "soluble in water at pH 3.5"},
      {"measurement": "EGFR degradation", "setting": "[16]", "result": "degrades EGFR"}
    ]}
  ]
}
